Experiment in all cases: growth of human tumour cells (NCI), 48 h
Assay [1] concerns HOP-18.
Assay [2] has as its system XF498.
Assay [3] relates to RXF 631.
For assay [4], the system named is M19-MEL.
For assay [5], the system named is DMS-273.
Assay [6] deals with LXFL 529.
In assay [7] the test system is KM-20L2.
The subject of assay [8] is DLD-1.
For assay [9], the system named is DMS-114.

We go through 25 compounds from ChEMBL document CHEMBL1201862, “PubChem BioAssay data set” (2004).

The structures appear in SMILES notation.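 Protocol summary: plate cells (96-well), add compound at 5 concentrations, incubate 48 h, interpolate endpoints linearly. GI50 is the concentration that inhibits growth by half.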 Active and inactive are the calls of the source. Rule as the data show it: active = GI50 up to about 1.1 µM and inactive = higher. Bounds are passed on as bounds.

With `N#Cc1ccc(/C=C(/C(=O)c2ccccc2)c2ccccc2)cc1`, the GI50 in [1] is 27.5 µM (inactive); in assay [2], 10.1 µM (inactive); in assay [3], 11.1 µM (inactive); in assay [4] it was 14 µM (inactive); in assay [5] it was 4.82 µM (inactive); in [6], 4.78 µM (inactive). Moreover, the GI50 in assay [7] was 11.2 µM (inactive); in assay [8] it was 6.58 µM (inactive); in assay [9], 12.9 µM (inactive).
Take `C[C@@H](N[C@H]1CCC[C@@H]1O)c1ccccc1.C[C@@H](N[C@H]1CCC[C@H]1O)c1ccccc1`: the GI50 is 48.8 µM (inactive) in [1]; > 100 µM (inactive) in assay [2]; > 100 µM (inactive) in assay [4]; > 100 µM (inactive) in [5]; 38.2 µM (inactive) in assay [7]; > 100 µM (inactive) in assay [9].
As to `O=C(c1cccs1)N(C(=S)N1CCN(c2ccccc2)CC1)C1CCCCC1`, the GI50 in assay [1], in assay [4], in assay [5], in [6], in [7] and in [8] was > 100 µM (inactive) throughout. The GI50 in [9] is 58.2 µM (inactive).
Turning to `COC1(OC)C2(Cl)C(Cl)=C(Cl)C1(Cl)C1C=CC=CC12` (stereo unspecified), the GI50 was 46.6 µM (inactive) in [2]; 13.1 µM (inactive) in [3]; 44.9 µM (inactive) in assay [4]; 60.8 µM (inactive) in [5]; > 100 µM (inactive) in [6]; 35.2 µM (inactive) in [7]. Moreover, the GI50 is 67.5 µM (inactive) in [8] and 42.4 µM (inactive) in assay [9].
With `O=C(O)CN1CCSc2ccccc2CN(CC(=O)O)CCSc2ccccc2C1`, the GI50 in [1], in assay [4], in [5], in [6], in assay [7] and in assay [8] was > 100 µM (inactive) in each case.
Consider `NNC(=S)N/N=C(\CCCC(=O)NCCc1ccccc1)CC(=O)c1ccccc1`, for which the GI50 in assay [1], in assay [4], in [6], in assay [7], in assay [8] and in assay [9] was > 100 µM (inactive) throughout.
`NC(=O)c1ncn2c1NCC1OC2C(O)C1O` (stereo unspecified): the GI50 in assay [1], in assay [2], in assay [3], in assay [4], in assay [5] and in [6] was > 100 µM (inactive) each time. Besides, the GI50 in assay [7], in [8] and in [9] was > 100 µM (inactive) each time.
Regarding `O=P(Nc1ccccc1)(Oc1ccccc1)N(CCCl)CCCl` (stereo unspecified), the GI50 in assay [1], in assay [3], in assay [4], in assay [5], in [7] and in [8] was > 100 µM (inactive) in each case. For the same compound, in assay [9], the GI50 was 60.1 µM (inactive).
For the compound `COc1cccc(NC(=O)CC(=O)N2N=C(N(CCC#N)c3ccccc3C)CC2c2ccccc2)c1` (stereo unspecified), the GI50 in assay [1], in assay [3], in [4], in assay [5], in assay [6] and in [7] was > 100 µM (inactive) throughout. For the same compound, the GI50 in assay [8] and in [9] was > 100 µM (inactive) throughout.
`C/C=C/C(=O)Oc1cccc2cccnc12`: the GI50 in assay [1] is 24.5 µM (inactive); in assay [2], 8.41 µM (inactive); in assay [4] it was 12.5 µM (inactive); in assay [5], 14.6 µM (inactive); in [6] it was 4.21 µM (inactive); in [7], 8.07 µM (inactive). Also, the GI50 is 4.5 µM (inactive) in [8] and 4.22 µM (inactive) in assay [9].
With `COc1ccc(OC(C)C(=O)O)c2c(=O)ccccc12` (stereo unspecified), the GI50 in [2], in assay [3], in assay [4], in assay [5], in assay [6] and in [7] was > 100 µM (inactive) each time. The GI50 in assay [8] and in assay [9] was > 100 µM (inactive) throughout.
Consider `COc1cc(CC2c3cc(OC)c(OC)cc3CCN2C)c(Oc2cc3c(cc2OC)-c2c(OC)c(OC)c(OC)c4c2C(C3)N(C)CC4)cc1OC` (stereo unspecified), for which the GI50 is 16.4 µM (inactive) in [1]; 13 µM (inactive) in assay [2]; 15 µM (inactive) in assay [4]; 12.5 µM (inactive) in assay [5]; 13.7 µM (inactive) in assay [6]; 5.93 µM (inactive) in assay [7]. Besides, the GI50 was 15.5 µM (inactive) in assay [8] and 12.1 µM (inactive) in assay [9].
Take `CCCc1ccc(NCc2cc(OC)c(OC)c(OC)c2)cc1`: the GI50 was 31.3 µM (inactive) in [1]; 18.9 µM (inactive) in assay [2]; 20.5 µM (inactive) in assay [4]; 17 µM (inactive) in assay [6]; 28.6 µM (inactive) in [7]; 23.9 µM (inactive) in assay [8]. In addition, in [9], the GI50 was 15.6 µM (inactive).
With `OCC(O)COc1ccc(F)cc1` (stereo unspecified), the GI50 in assay [1], in assay [2], in assay [4], in assay [5], in [6] and in assay [7] was > 100 µM (inactive) each time. The GI50 in [8] and in [9] was > 100 µM (inactive) in each case.
Consider `Cc1cccc(=O)c([O-])c1.Cc1cccc(=O)c([O-])c1.[Bi+3].[Cl-]`, for which the GI50 in assay [4] is 11 µM (inactive); in assay [5], 7.29 µM (inactive); in [7], 2.99 µM (inactive); in assay [8] it was 9.95 µM (inactive); in [9], 3.3 µM (inactive).
For the compound `O=C1c2ccccc2C(=O)c2c1ccc1c2N=C(c2ccc(Br)cc2)CC(c2cccc3ccccc23)N1` (stereo unspecified), the GI50 in [1], in [2], in assay [3], in assay [5], in assay [6] and in [7] was > 100 µM (inactive) in each case. Moreover, the GI50 in assay [8] and in [9] was > 100 µM (inactive) throughout.
On to `O=C1CC2(CCC3=C(O2)c2ccccc2NC(=O)C3)C(=O)c2ccccc2N1` (stereo unspecified), for which the GI50 in assay [2], in assay [4], in [5], in assay [6], in assay [7] and in [9] was > 100 µM (inactive) in each case.
Turning to `CC(=O)O[C@H]1CC[C@@]2(C)C(=CC[C@H]3C4=CC=C(C(C)=O)[C@@]4(C)CCC32)C1` (stereo partly specified), the GI50 in [1] was > 100 µM (inactive); in assay [4], 36.3 µM (inactive); in assay [5], 28.2 µM (inactive); in assay [6], 30.5 µM (inactive); in assay [7] it was 44.1 µM (inactive); in assay [8], 37.8 µM (inactive).
Consider `CC(C)CCCC(C)[C@H]1CCC2[C@@H]3CCC4Nc5nocc5C[C@]4(C)C3CC[C@@]21C` (stereo partly specified), for which the GI50 in assay [1] is 13.6 µM (inactive); in [4], 16.9 µM (inactive); in assay [5] it was 19.2 µM (inactive); in assay [6] it was 11.8 µM (inactive); in [7], 21.2 µM (inactive); in assay [8] it was 19.7 µM (inactive).
As for `CCNC(=O)CCN(C(=O)O)S(=O)(=O)c1ccc(NC(=O)c2ccccc2)cc1`, the GI50 in assay [1] was > 100 µM (inactive); in assay [2], > 100 µM (inactive); in assay [4], 77.6 µM (inactive); in assay [5], 23.8 µM (inactive); in assay [6], > 100 µM (inactive); in assay [7], > 100 µM (inactive). For the same compound, the GI50 in [8] and in [9] was > 100 µM (inactive) in each case.
As to `COc1ccc2c(c1)c1c(C)c3cnccc3c(C)c1n2CCCN`, the GI50 was 0.42 µM (active) in [1]; 0.422 µM (active) in [2]; 0.203 µM (active) in [4]; 0.1 µM (active) in [5]; 0.119 µM (active) in [7]; 0.0853 µM (active) in [8]. Also, the GI50 in assay [9] was 0.273 µM (active).
With `NC(=O)CCCC(NCc1c2ccccc2nc2ccccc12)C(=O)O` (stereo unspecified), the GI50 in assay [2] was 21 µM (inactive); in assay [4], 45.2 µM (inactive); in assay [5], 28.2 µM (inactive); in assay [6] it was 39.9 µM (inactive); in [7] it was 43.5 µM (inactive); in [8], 35.4 µM (inactive). Also, the GI50 in assay [9] is 37.2 µM (inactive).
Take `COc1ccc(-c2cc(O)c3cc4c(cc3n2)OCO4)c(OC)c1OC`: the GI50 in assay [1] is 96.6 µM (inactive); in assay [2], 66.5 µM (inactive); in assay [4], 95.1 µM (inactive); in [5] it was 38.2 µM (inactive); in [6], > 100 µM (inactive); in [7] it was > 100 µM (inactive). The GI50 in assay [8] is > 100 µM (inactive); in assay [9], 29.4 µM (inactive).
As to `Cc1cc(N(CCC#N)CCC#N)ccc1/C=C/C(=O)Nc1ccccc1Cl`, the GI50 in [2], in [4], in assay [5], in assay [6], in [7] and in [8] was > 100 µM (inactive) throughout. Moreover, the GI50 in assay [9] is > 100 µM (inactive).
As to `C[C@]12C/C(=C/O)C(=O)C(O)=C1CC[C@@H]1C2CC[C@@]2(C)C1CC[C@@H]2O` (stereo partly specified), the GI50 in [1] is 33.7 µM (inactive); in [2], 17.6 µM (inactive); in assay [3], 20.6 µM (inactive); in [4] it was 21.2 µM (inactive); in [5] it was 23.5 µM (inactive); in assay [6], 16.2 µM (inactive). Also, the GI50 was 22.6 µM (inactive) in assay [7] and 18.2 µM (inactive) in assay [9].
